Data on one compound can be found in EP0476120B1, “PROCESS FOR PREPARING EQUIMOLAR SALTS OF ASPARTIC ACID AND MAGNESIUM, MAGNESIUM ASPARTATE SALT OBTAINED BY SAID PROCESS AND ITS APPLICATIONS” (LA[…] SPINDLER, priority 1990, dated 1991).

The test system of assay [1] is singes cynomolggus (Macaca fascicularis). Particulars: monkey.
Excerpt: L'étude a été réalisée chez sept singes cynomolggus (Macaca fascicularis), de sexe mâle et femelle, pesant entre 2 et 5 kg.
Un mois avant le début de l'étude, sous anesthésie générale (kétamine + xylazine) huit électrodes (boules d'argent) ont été implantées dans la table osseuse, au niveau des aires frontale, centrale, pariétale et occipitale droites et gauche. L'électrocorticogramme a été enregistré sur un électroencéphalographe REEGA mini-huit (Alvar Electronic) en dérivations monopolaires par rapport à une référence commune.
Les enregistrements ont été réalisés sur des animaux habitués au siège à contention, en position assise, dans une pièce calme mais non insonorisée, en ambiance lumineuse tamisée.
Les huit dérivations EEG ont été analysées simultanément par un Neuromapper 1620 (Neuroscience) qui extrait du signal les transformées de Fourier ("Fast Fourier Transform" : FFT). En fait, 90 échantillons de 2 secondes, soit 3 minutes de tracé exempt d'artefact, ont été analysés. Les données recueillies correspondent à l'amplitude (»V) de chacune des 5 bandes de fréquence EEG classiques selon les bornes suivantes : delta de 0 à 4 Hz ; thêta de 7 à 8 Hz ; alpha de 8 à 13 Hz, bêta₁ de 13 à 20 Hz ; bêta₂ de 20 à 30 Hz.
Pour chacune de ces bandes ont ensuite été calculées : • Les puissances absolues en »V² • les puissances relatives (%), c'est-à-dire la puissance de chacune des bandes de fréquence rapportée à la puissance totale du spectre (power) • la "SEF 95 % (Spectral Edge Frequency 95 %) qui est la fréquence en deçà de laquelle se situent 95 % de la puissance totale du spectre, • le rapport entre fréquences rapides et fréquences lentes : alpha+ bêta/delta + thêta ( α+β/δ+ϑ [formula] )
La dernière ingestion a précédé de 1 heure la seconde administration de diazépam.
Le diazépam (ampoules injectables - Valium® 10 - Roche) a été administré par voie orale, en solution aqueuse, sous un volume de 10 ml/singe, à des doses comprises entre 0,5 mg.kg⁻¹ et 4 mg.kg⁻¹ (doses différentes du fait d'une sensibilité individuelle propre à chaque sujet).
100 (le seuil de probabilité statistique choisi peut paraître élevé ; il est en rapport avec le faible nombre de sujets : n=7). L'ensemble de l'analyse statistique a été obtenu grâce au programme statistique SPSS/PC⁺ (SPSS Inc., Chicago)
Another assay relates to souris. Conditions: mouse; for Nombre de passages (moyenne): 60 min before test, controls 5,5.

Where two headings read alike, the source gives them in different places.

Excerpt for souris: Le test est pratiqué chez des souris NMRI-HAN soumises à une diète hydrique préalable de 18 heures et réparties en séries de 15.
L'appareillage utilisé consiste en une boite en plexiglas dont le sol est constitué de 4 plaques métalliques séparées les unes des autres. Un circuit d'alimentation permet d'établir une différence de potentiel entre deux plaques adjacentes grâce à un contacteur. Le test est pratiqué en plaçant doucement une souris sur une des plaques du fond de l'appareil ; les plaques sont électrifiées chaque fois que la souris passe de l'une à l'autre, de telle sorte qu'elle reçoit alors un choc électrique au niveau des pattes. Les paramètres du choc sont les suivants : durée de l'impulsion électrique égale à 0,5 seconde ; intensité égale à 0,6 milliampères. Ce choc induit chez les animaux une réaction motrice évidente de fuite, la souris traversant souvent 2 à 3 plaques successivement. Les conditions expérimentales adoptées ont été les suivantes : exploration libre pendant 15 secondes, traversée punie pendant la minute suivante, les résultats étant exprimés en nombre de passages "punis" pendant cette minute. Soixante souris ont été réparties de la façon suivante :
Les administrations ont été réalisées par voie intra-gastrique, à partir de solutions aqueuses, sous un volume constant de 20 ml.kg⁻¹, 60 minutes avant le début du test. Les animaux contrôles ont reçu un même volume d'eau distillée.
Les administrations ont été réalisées par voie intra-gastrique, à partir de solutions aqueuses, sous un volume constant de 20 ml.kg⁻¹ par produit 60 minutes avant le début du test. Les animaux contrôles ont reçu un même volume d'eau distillée.
Dans un premier temps a été calculée la DA 50 (dose anxiolytique 50) du Diazépam (Valium® 10 mg - Roche, ampoule 2ml) seul, administré à des doses suivant une progression géométrique de base 0,25 et de raison 2, soit respectivement 0,25, 0,5 l et 2 mg.kg⁻¹.
La DA 50 est déterminée à partir du pourcentage d'animaux tranquillisés. Est considéré comme tranquillisé tout animal dont le nombre de passages punis est égal ou supérieur à 9, c'est-à-dire à une valeur représentant une augmentation d'au moins 50 % par rapport au score moyen d'animaux non traités.
Toutes les administrations ont été réalisées par voie intra-gastrique à partir de solutions aqueuses, sous un volume constant de 20 ml.kg⁻¹ (eau distillée pour le groupe contrôle). […] La veille du test, les souris sont soumises à une diète hydrique de 18 heures. La dernière ingestion est pratiquée une heure avant l'étude, concomitamment avec le diazépam (Valium® 10 mg - Roche, ampoules de 2 ml).

With `CN1C(=O)CN=C(c2ccccc2)c2cc(Cl)ccc21` [Diazépam, reference compound], the “durée de l'action” value in assay [1] (diazepam alone 0,5-4 mg.kg⁻¹ P.O.) was “jusqu'à la 5ème heure”. Moreover, the “valeurs du rapport α+β/δ+ϑ” value in assay [1] (diazepam alone 0,5-4 mg.kg⁻¹ P.O., figure 4) was “augmentation durable”. In addition, the “acmé de l'effet” value in assay [1] (diazepam alone 0,5-4 mg.kg⁻¹ P.O., time after ingestion) worked out at 45 minutes à une heure. The “proportion relative de la bande β₂” value in assay [1] (diazepam alone 0,5-4 mg.kg⁻¹ orally, at peak effect one hour after ingestion, reference 20 %) was 27%. Further, in assay [1] (diazepam alone (first test), figure 3), the “"SEF 95 %": temps du maximum” value was determined as 30 min. For the same compound, the “Nombre de passages (moyenne)” value in the assay on souris (Valium alone 0,5 mg.kg⁻¹ P.O.) is on record as 7,7; in the assay with souris (Valium alone 0,25 mg.kg⁻¹ P.O.), 7,3; with souris (Valium alone 1 mg.kg⁻¹ P.O.), 9,5; with souris (Valium alone 2 mg.kg⁻¹ P.O.) it was 10,6. In addition, the “DA 50 (dose anxiolytique 50)” value in the assay on souris (diazepam alone P.O., from % tranquillised animals (>= 9 punished crossings)) is on record as 0,76 mg.kg⁻¹.
